Measured values reported in article PMC12582985, “Preparation and characterization of renal cell peptides from fetal rats for their antitumor activity” (FEBS Open Bio, 2025).

Columns and labels:
MCF‐10A cells = test: CCK‐8 cell viability assay, non‐tumor MCF‐10A; type: cell-based, human; settings: CCK‐8, 48 h, triplicate; peptides 5–45 μg·mL^−1; 5‐FU positive control 0.1–5 mM; vs negative control
Source text: (§1) Human breast cancer MCF‐7 (RRID:CVCL_0031), human lung cancer A549 (RRID:CVCL_0023), human colon cancer HCT‐116 (RRID:CVCL_0291), human cervical cancer Hela (RRID:CVCL_0030), human hepatoma HepG2 (RRID:CVCL_0027), human gastric cancer SGC‐7901 (RRID:CVCL_0520) and human non‐tumor mamma gland epithelial MCF‐10A (RRID:CVCL_0598) and transformed human liver epithelial‐2 (THLE‐2) (RRID:CVCL_3803) cells were obtained from Shanghai Donghuan Biotechnology (Shanghai, China). All cell lines had been authenticated in the past 3 years and again within 4 months after completion of the experiments. All cell lines had been tested for mycoplasma contamination frequently. Their identities were characterized by short tandem repeat analysis. All of these cell lines were cultured in high glucose Dulbecco's modified Eagle's medium supplemented by 10% fetal bovine serum, 100 units·mL^−1 penicillin and 100 μg·mL^−1 streptomycin (complete culture medium).
(§2) MCF‐7 cells (1 × 10^4 cells per well) were treated in triplicate with different doses of each type of RC extract in 96‐well plates for varying time periods. The negative control cells were treated with the diluent of physiological saline, whereas positive control cells were treated with different concentrations (0.1–5 mM) of 5‐fluorouracil (5‐FU) (Leica, Wetzlar, Germany). During the last hour of culture, each well of cells was treated with 10 μL of CCK‐8 solution. The absorbance of the supernatants of individual wells was measured at 450 nm using a microplate reader. Similarly, the effect of different synthesized RCPs (5–45 μg·mL^−1) on the viability of different types of human cancer cells was tested with CCK‐8 assays using the diluent of physiological saline containing the same concentration of dimethylsulfoxide as a negative control and the same concentrations of 5‐FU as the positive controls. Ten RCPs with a predicted strong bioactivity were synthesized by GenScript ([…]) and their purity, sequences and solubility are shown in Table 1. […] The formula used to calculate the cytotoxicity rate of each concentration of RCP was: Cytotoxicity rate (%) = (absorbance value of the control group − absorbance value of the experimental group)/absorbance value of the control group × 100%. In addition, MCF‐7 cells were treated with each type of RCP at 45 μg·mL^−1 for 12–72 h and the dynamic impact of RCP treatment on the viability of MCF‐7 cells was determined every 12 h using CCK‐8 assays.
(§3) Data are expressed as the mean ± SEM. The data distribution was analyzed by Shapiro–Wilk test. The IC50 values of each peptide for individual cell lines were determined using the PRISM, version 8 (GraphPad Software Inc.). Briefly, all dose–response data were converted into […], which were automatically analyzed by PRISM for non‐linear regression to determine and report the IC50 and its SD for each peptide in a specific cell line. The difference among groups was analyzed by analysis of variance and post‐hoc Tukey's tests and the comparison between groups was performed using Student's t‐test and PRISM, version 8 (GraphPad Software Inc.). P < 0.05 was considered statistically significant.

[1] = Solubility of the synthesized peptides; type: physicochemical; settings: for aqueous solubility: in words; for Solubility: solvent given for the synthesized peptide (GenScript)
[2] = tested on: cancer cells (MCF‐7, A549, HCT‐116, Hela, HepG2, SGC‐7901) vs non‐tumor MCF‐10A and THLE‐2 cells; test: CCK‐8 cytotoxicity, preference for cancer cells over non‐tumor cells; type: cell-based, human; set-up: cytotoxicity against non‐tumor MCF‐10A and THLE‐2 cells compared with tumor cell lines: dose or concentration left out as unconfirmed; settings: for preference of cytotoxicity for cancer cells over non‐tumor cells: 5–45 μg·mL^−1, 48 h, CCK‐8; for cytotoxicity against non‐tumor MCF‐10A and THLE‐2 cells compared with tumor cell lines: 48 h, P < 0.05 or P < 0.01
Source text: as §1, §2, §3

MCF‐7 cells = test: CCK‐8 cell viability assay, MCF‐7; type: cell-based, human; settings: for dynamic cytotoxicity against MCF‐7 cells: 45 μg·mL^−1, 12–72 h, CCK‐8 every 12 h, maintained at highest levels to 72 h; for viability of MCF‐7 cells: CCK‐8, 48 h, triplicate, peptides 5–45 μg·mL^−1, 5‐FU positive control 0.1–5 mM, vs negative control
Source text: as §1, §2, §3

THLE‐2 cells = test: CCK‐8 cell viability assay, non‐tumor THLE‐2; type: cell-based, human; settings: CCK‐8, 48 h, triplicate; peptides 5–45 μg·mL^−1; 5‐FU positive control 0.1–5 mM; vs negative control
Source text: as §1, §2, §3

HCT‐116 cells = test: CCK‐8 cell viability assay, HCT‐116; type: cell-based, human; settings: CCK‐8, 48 h, triplicate; peptides 5–45 μg·mL^−1; 5‐FU positive control 0.1–5 mM; vs negative control
Source text: as §1, §2, §3

SGC‐7901 cells = test: CCK‐8 cell viability assay, SGC‐7901; type: cell-based, human; settings: CCK‐8, 48 h, triplicate; peptides 5–45 μg·mL^−1; 5‐FU positive control 0.1–5 mM; vs negative control
Source text: as §1, §2, §3

A549 cells = test: CCK‐8 cell viability assay, A549; type: cell-based, human; settings: CCK‐8, 48 h, triplicate; peptides 5–45 μg·mL^−1; 5‐FU positive control 0.1–5 mM; vs negative control
Source text: as §1, §2, §3

HepG2 cells = test: CCK‐8 cell viability assay, HepG2; type: cell-based, human; settings: CCK‐8, 48 h, triplicate; peptides 5–45 μg·mL^−1; 5‐FU positive control 0.1–5 mM; vs negative control
Source text: as §1, §2, §3

Hela cells = test: CCK‐8 cell viability assay, Hela; type: cell-based, human; settings: CCK‐8, 48 h, triplicate; peptides 5–45 μg·mL^−1; 5‐FU positive control 0.1–5 mM; vs negative control
Source text: as §1, §2, §3

With “VCMRVCRTWSRWCYDKRLWP [RCP‐5, synthesized 20‐mer renal cell peptide from F‐box and leucine‐rich repeat protein 19, trypsin digested]” the “viability of non‐tumor MCF‐10A cells” value (MCF‐10A cells) was “only treatment with the highest doses of them slightly reduced the viability”, the aqueous solubility [1] was “low aqueous solubility” and the Solubility [1] was 0.1% Dimethylsulfoxide. The “preference of cytotoxicity for cancer cells over non‐tumor cells” value (“preference … over non‐tumor cells” below) [2] was “potent cytotoxicity preferably against cancer cells”, the “cytotoxicity against non‐tumor MCF‐10A and THLE‐2 cells compared with tumor cell lines” value [2] was “statistically lower than tumor cell lines” and the “dynamic cytotoxicity against MCF‐7 cells” value (MCF‐7 cells) was “increased with time from 12 h post treatment to 48 h”. For the same sequence, the “viability of MCF‐7 cells” value (MCF‐7 cells) was “significantly decreased the viability”, the “viability of non‐tumor THLE‐2 cells” value (THLE‐2 cells) was “only treatment with the highest doses of them slightly reduced the viability” and the “viability of HCT‐116 cells” value (HCT‐116 cells) was “significantly decreased the viability”. The “viability of SGC‐7901 cells” value (SGC‐7901 cells) was “significantly decreased the viability”, the “viability of A549 cells” value (A549 cells) was “significantly decreased the viability” and the “viability of HepG2 cells” value (HepG2 cells) was “significantly decreased the viability”. The “viability of Hela cells” value (Hela cells) was “significantly decreased the viability”.
With “QQHMKFGKKCWRKVWALLYA [RCP‐1, synthesized 20‐mer renal cell peptide from Docking protein 3, trypsin digested]” the “viability of non‐tumor MCF‐10A cells” value (MCF‐10A cells) was “only treatment with the highest doses of them slightly reduced the viability”, the aqueous solubility [1] was “low aqueous solubility” and the Solubility [1] was 0.1% Dimethylsulfoxide. For the same sequence, the “preference … over non‐tumor cells” value [2] was “potent cytotoxicity preferably against cancer cells”, the “cytotoxicity against non‐tumor MCF‐10A and THLE‐2 cells compared with tumor cell lines” value [2] was “statistically lower than tumor cell lines” and the “dynamic cytotoxicity against MCF‐7 cells” value (MCF‐7 cells) was “increased with time from 12 h post treatment to 48 h”. The “viability of MCF‐7 cells” value (MCF‐7 cells) was “significantly decreased the viability”, the “viability of non‐tumor THLE‐2 cells” value (THLE‐2 cells) was “only treatment with the highest doses of them slightly reduced the viability” and the “viability of HCT‐116 cells” value (HCT‐116 cells) was “significantly decreased the viability”. For the same sequence, the “viability of SGC‐7901 cells” value (SGC‐7901 cells) was “significantly decreased the viability”, the “viability of A549 cells” value (A549 cells) was “significantly decreased the viability” and the “viability of HepG2 cells” value (HepG2 cells) was “significantly decreased the viability”. For the same sequence, the “viability of Hela cells” value (Hela cells) was “significantly decreased the viability”.
In the case of “GPAGPQGPR [RCP‐3, synthesized 9‐mer renal cell peptide from Collagen alpha‐1 (I) chain, trypsin digested]”, the “viability of non‐tumor MCF‐10A cells” value (MCF‐10A cells) is reported as “decreased the viability”, the Solubility [1] is reported as “Water, pH 7.0” and the “preference … over non‐tumor cells” value [2] is reported as “did not preferably decrease the viability of tumor cells”. For the same sequence, the “viability of MCF‐7 cells” value (MCF‐7 cells) was “decreased the viability”, the “viability of non‐tumor THLE‐2 cells” value (THLE‐2 cells) was “decreased the viability” and the “viability of HCT‐116 cells” value (HCT‐116 cells) was “decreased the viability”. For the same sequence, the “viability of SGC‐7901 cells” value (SGC‐7901 cells) was “decreased the viability”, the “viability of A549 cells” value (A549 cells) was “decreased the viability” and the “viability of HepG2 cells” value (HepG2 cells) was “decreased the viability”. For the same sequence, the “viability of Hela cells” value (Hela cells) was “decreased the viability”.
With “GIYAPDSPRAF [RCP‐8, synthesized 11‐mer renal cell peptide from Vanin 1, protamex‐digested]” the “viability of non‐tumor MCF‐10A cells” value (MCF‐10A cells) was “decreased the viability”, the Solubility [1] was 0.1% Dimethylsulfoxide and the “preference … over non‐tumor cells” value [2] was “did not preferably decrease the viability of tumor cells”. The “viability of MCF‐7 cells” value (MCF‐7 cells) was “decreased the viability”, the “viability of non‐tumor THLE‐2 cells” value (THLE‐2 cells) was “decreased the viability” and the “viability of HCT‐116 cells” value (HCT‐116 cells) was “decreased the viability”. For the same sequence, the “viability of SGC‐7901 cells” value (SGC‐7901 cells) was “decreased the viability”, the “viability of A549 cells” value (A549 cells) was “decreased the viability” and the “viability of HepG2 cells” value (HepG2 cells) was “decreased the viability”. The “viability of Hela cells” value (Hela cells) was “decreased the viability”.
